From ChEMBL document CHEMBL1201862, “PubChem BioAssay data set” (2004)
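Protocol summary: plate cells (96-well), add compound at 5 concentrations, incubate 48 h, interpolate endpoints linearly. GI50 is the concentration that inhibits growth by half.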 Activity calls are given as the source filed them. No stated cut-off is given here; in the data, active = GI50 up to about 1.1 µM and inactive = higher.

What was measured:
Experiment in all cases: NCI anticancer screen, dose series, 48 h
SF-295 = tested on: SF-295
M14 = tested on: M14
CCRF-CEM = tested on: CCRF-CEM
TK-10 = tested on: TK-10
SN12C = tested on: SN12C
UACC-257 = tested on: UACC-257
NCI-H460 = tested on: NCI-H460
CAKI-1 = tested on: CAKI-1
SK-MEL-5 = tested on: SK-MEL-5
OVCAR-8 = tested on: OVCAR-8
SNB-75 = tested on: SNB-75
SW-620 = tested on: SW-620
ACHN = tested on: ACHN
A549 = tested on: A549
HL-60 = tested on: HL-60
IGROV-1 = tested on: IGROV-1

Measured: GI50

Cc1c(N2CCN(C)CC2)nc2ccc(Cl)cc2c1-c1ccccc1
inactive: SF-295 17.4 µM | M14 18.5 µM | CCRF-CEM 17.5 µM | TK-10 > 10 µM | SN12C 14.7 µM | UACC-257 17.9 µM | NCI-H460 17.5 µM | CAKI-1 17.3 µM | SK-MEL-5 15.4 µM | OVCAR-8 16.6 µM | SNB-75 16.7 µM | SW-620 16.8 µM | ACHN 22 µM | A549 18.4 µM | HL-60 12.7 µM

Cc1ccc(NC(=O)CC(=O)n2nc(-c3ccccc3)c(/N=N\c3ccccc3[N+](=O)[O-])c2-c2ccccc2)cc1
inactive: SF-295 29 µM | M14 > 100 µM | CCRF-CEM > 100 µM | TK-10 > 100 µM | SN12C > 100 µM | UACC-257 > 100 µM | NCI-H460 35.8 µM | CAKI-1 69.7 µM | SK-MEL-5 57.5 µM | IGROV-1 > 100 µM | OVCAR-8 67.5 µM | SNB-75 69.3 µM | SW-620 > 100 µM | ACHN 89.3 µM | A549 90.2 µM | HL-60 86.5 µM

CC(=O)/C=C\C1CC2C=CC1C2 (centres undefined)
inactive: SF-295 31 µM | M14 33.7 µM | CCRF-CEM 16.3 µM | TK-10 86.5 µM | SN12C 26.7 µM | NCI-H460 44.1 µM | SK-MEL-5 57.9 µM | IGROV-1 81.3 µM | OVCAR-8 36.3 µM | SNB-75 21.6 µM | SW-620 33.7 µM | ACHN 79.3 µM | A549 67.1 µM | HL-60 26.8 µM

Cc1nc(C(N)=O)c(N)n1CCN1CCN(C(=O)CCCCCCCCCCNC2NC=Nc3[nH]cnc32)CC1 (centres undefined)
inactive: SF-295 41.1 µM | M14 25.7 µM | CCRF-CEM 13.8 µM | TK-10 90.2 µM | SN12C 80.7 µM | UACC-257 16.3 µM | NCI-H460 32.7 µM | CAKI-1 > 10 µM | IGROV-1 52.6 µM | OVCAR-8 33.9 µM | SW-620 > 100 µM | ACHN 29.4 µM | A549 51.2 µM | HL-60 15.2 µM

COc1c(NC(C)=O)cc(C)cc1NC(C)=O
inactive: SF-295 > 100 µM | M14 > 100 µM | CCRF-CEM > 100 µM | TK-10 > 100 µM | SN12C > 100 µM | UACC-257 > 100 µM | NCI-H460 > 100 µM | CAKI-1 > 100 µM | SK-MEL-5 > 100 µM | OVCAR-8 > 100 µM | SNB-75 > 100 µM | SW-620 > 100 µM | ACHN > 100 µM | A549 > 100 µM | HL-60 > 100 µM

NN=C1/C(=C\c2ccccc2)CCC/C1=C/c1ccccc1
inactive: SF-295 45.3 µM | M14 41.6 µM | CCRF-CEM 20.1 µM | TK-10 > 100 µM | SN12C 27 µM | UACC-257 30.8 µM | NCI-H460 32 µM | IGROV-1 39.1 µM | OVCAR-8 50.4 µM | SNB-75 17.7 µM | SW-620 42.5 µM | ACHN 27.4 µM | A549 33.3 µM | HL-60 20.3 µM

COc1ccc(/C=C2\CCCC(C(NO)c3ccc(OC)cc3)C2=NO)cc1 (centres undefined)
inactive: SF-295 55.6 µM | M14 39.7 µM | CCRF-CEM 33.9 µM | TK-10 66.1 µM | SN12C 39.3 µM | UACC-257 38.1 µM | NCI-H460 59.8 µM | CAKI-1 49 µM | SK-MEL-5 20 µM | IGROV-1 33.9 µM | OVCAR-8 40.5 µM | SNB-75 26.3 µM | SW-620 44.3 µM | ACHN 41.6 µM | A549 44.5 µM | HL-60 16.2 µM
